Measured values published in patent US8563602B2, “Method of improving animal tissue quality by supplementing the animal diet with oleic acid and selected tocols” (E.I. du Pont de Nemours and Co., priority 2004, dated 2013).
Marks after values point to notes of the source that are not given here.

Columns and labels:
[1] = In vitro addition of gamma-tocopherol to ground pork: TBARS of cooked patties; settings: GT 100 ppm added in vitro to raw ground pork, HO = pork from swine fed high oleic diet
Procedure: Applicants assessed the effects of in vitro addition of gamma-tocopherol to ground pork from swine fed a diet supplemented with oleic acid in order to evaluate gamma tocopherol's value as an animal feed supplement when used in conjunction with oleic acid. Gamma-tocopherol was added to the raw (uncooked) ground pork from swine whose diet was not supplemented with oleic acid and swine whose diet was supplemented with oleic acid. Ground pork from pigs fed the respective treatments were formed into patties, cooked and refrigerated for two days in plastic pouches. Samples of the cooked patties were then submitted for TBARS (thiobarbituric acid reactive substances) determination at 0 hours and 24 hours following refrigeration.

[2] = system: swine; test: 2003 swine feed test: belly thickness and flex; assay type: in vivo; settings: recalculated from Table 2: oleic acid level High or tocotrienol addition 225 ppm
From the text: (§1) Applicants assessed the effects of supplementing the animal diet with oleic acid and tocotrienol on pork meat quality in an experiment in which data from pigs fed one of four dietary treatments were compared. Seventy-two barrows (approximately 20 kg) were randomly placed in pens with water and feed provided ad libitum at the Pioneer Livestock Nutrition Center (PLNC) in Polk City, Iowa. Ad libitum swine feeding continued for 49 days (through Mar. 4, 2003) until the average weight reached 32 kg. A uniform group of 64 pigs was selected, and the pigs were randomly assigned to each of four treatments with 16 experimental units (individually housed pigs) per dietary treatment.
(§2) On Apr. 22, 2003 (Day 1 of the feed test) the feeders were emptied and the dietary treatments were commenced and continued until Jul. 14, 2003 (Day 83). Dietary treatments consisted of two levels of oleic acid (normal and high) with or without tocotrienol (0 or 225 ppm), as summarized below:
In the normal or control (CO) diet, the total dietary content of oil was 5.5 wt % of the feed. The oil was a typical corn oil having an oleic acid content of 29.6 wt % of the fatty acid fraction. In the high-oleic acid (HO) diet, the total dietary content of oil was still 5.5 wt %, but the oil was high-oleic sunflower oil with an oleic acid content of 80.2 wt % of the fatty acid fraction. The high oleic sunflower oil was purchased from Cargill, Inc. All four experimental diets were formulated with soybean meal and corn flaking grits. The latter, being largely devoid of oil, were used in conjunction with the corn and high-oleic vegetable oils to achieve the desired dietary fatty acid content. […]
The pigs were slaughtered at an average weight of 120 kg on Jul. […] Following a 24 hour chill period, the carcasses were transferred to the University of Missouri processing lab, where weight yields were recorded and meat tissue was evaluated.
The right pork carcass side was fabricated into primal and sub-primal cuts and the bellies were evaluated for thickness, firmness and fatty acid profile.

[3] = system: swine; test: 2003 swine feed test: belly adipose tissue fatty acid composition and iodine value; assay type: in vivo; settings: recalculated from Table 4: oleic acid level High or tocotrienol addition 225 ppm
From the text: as §1, §2
In the normal or control (CO) diet, the total dietary content of oil was 5.5 wt % of the feed. The oil was a typical corn oil having an oleic acid content of 29.6 wt % of the fatty acid fraction. In the high-oleic acid (HO) diet, the total dietary content of oil was still 5.5 wt %, but the oil was high-oleic sunflower oil with an oleic acid content of 80.2 wt % of the fatty acid fraction. The high oleic sunflower oil was purchased from Cargill, Inc. All four experimental diets were formulated with soybean meal and corn flaking grits. The latter, being largely devoid of oil, were used in conjunction with the corn and high-oleic vegetable oils to achieve the desired dietary fatty acid content.
The tocotrienol used to supplement the (TT) and the (HO+TT) diets was obtained commercially from Fuji Chemical Industries (U.S.A.) Inc. of Robbinsville, N.J., and contained 7.5% alpha-, 12.3% gamma- and 3.0% delta-tocotrienol (a total tocotrienol content of 22.8%), as well as 7.2% alpha-tocopherol.
The fatty acid composition and iodine values in the pork belly adipose tissue was measured.

[4] = system: swine; test: 2003 swine feed test: ground pork visual color score on simulated retail display; assay type: in vivo; settings: recalculated from Table 6: oleic acid level High or tocotrienol addition 225 ppm
From the text: as §1, §2
(§3) Samples of ground pork were packaged in PVC wrap and kept on simulated retail display for seven days. During that time trained panelists made a subjective determination of the overall color score and percent discoloration of the ground pork.
Overall color was graded on a scale of 1.0 to 5.0 as follows: 1.0=bright grayish-pink or reddish-pink (acceptable), 2.0=grayish-pink or reddish-pink (acceptable), 3.0=slightly dark pink/red/pink/tan(acceptable), 3.5=threshold of retail acceptability, 4.0=moderately tan/pinkish-red (unacceptable), and 5.0=dark tan or dark pinkish-red (unacceptable).

[5] = system: swine; test: 2003 swine feed test: ground pork discoloration on simulated retail display; assay type: in vivo; settings: recalculated from Table 8: oleic acid level High or tocotrienol addition 225 ppm
From the text: as §1, §2, §3
Percent discoloration was also determined subjectively. In the table that follows, a higher number indicates a greater percent discoloration: […]

[6] = system: swine; test: 2003 swine feed test: TBARS content of uncooked and cooked ground pork; assay type: in vivo; settings: recalculated from Table 10: oleic acid level High or tocotrienol addition 225 ppm
From the text: as §1, §2
[…]. Cooked ground pork was measured for TBARS concentration at 0 hours and 24 hours after cooking.

[7] = system: steers; test: 2004 cattle feed test: uncooked ribeye steak discoloration; assay type: in vivo; settings: recalculated from Table 16: oleic acid level High or tocotrienol addition 150 ppm
From the text: Applicants assessed the effects of supplementing the animal diet with oleic acid and tocotrienol on beef quality in an experiment in which data from steers fed one of four dietary treatments were compared. The steers were blocked by weight (heavy or light) and assigned to eight outdoor group pens with five steers per pen. Pens were randomly assigned within each of the two weight blocks to four dietary treatments: (1) simulated oil-rich corn grain (coarse corn grits with corn oil added as 6% of the weight of the grits plus oil) (CO); (2) simulated oil-rich corn grain (coarse corn grits with a similar level of corn oil) with supplemental tocotrienol (CO+TT), (3) simulated high oleic acid corn grain (coarse corn grits with high oleic sunflower oil added as 6% of the weight of the grits plus oil) (HO); and (4) simulated high oleic acid corn grain (coarse corn grits with high oleic sunflower oil added as 6% of the weight of the grits plus oil) with supplemental tocotrienol (HO+TT); as summarized below:
The steers were fed their respective dietary supplements for 133 days starting Apr. 12, 2004 and ending Aug. 23, 2004. The cattle were loaded on Aug. 24, 2004 and transported to Emporia, Kans. for harvest at the IBP packing plant. Steaks and ground beef samples were evaluated for, among other things, color, shelf life (as measured by percent discoloration over time) and rancidity (as measured by TBARS concentration over time).
Ribeye steaks utilized for color evaluation were placed onto 17S foam trays with meat, fish and poultry pads (Dri-Loc AC-50) and wrapped with polyvinyl chloride (PVC) film. The steaks were placed under simulated retail display at 34+/−3 degree F. in open top cases programmed to defrost twice daily for seven days. During that time trained panelists made subjective determinations of the overall color score and percent discoloration of the ribeye steaks. […]
Percent discoloration was also determined subjectively. […]

In the case of Cc1c(O)cc2c(c1C)O[C@](C)(CCC[C@H](C)CCC[C@H](C)CCCC(C)C)CC2 [GT, gamma-tocopherol], the “TBARS content of cooked ground pork patties” value ([1]; 0 hours following refrigeration) is reported as 0.746 mg malonaldehyde/kg sample and the “TBARS content of cooked ground pork patties” value ([1]; 24 hours following refrigeration) is reported as 1.24 mg malonaldehyde/kg sample.

With CCCCCCCC/C=C\CCCCCCCC(=O)O [Oleic Acid, oleic acid] the Belly thickness [2] was 35.6 mm, the Lateral flex [2] was 11.0^b and the Vertical flex [2] was 18.7. The “Iodine Value (IV)” value [3] was 63.7^b, the “Monounsaturated Fatty Acid (MUFA)” value [3] was 55.55^b and the “Polyunsaturated Fatty Acids (PUFA)” value [3] was 9.67^b. The “Ground pork visual color score” value ([4]; Day 3) was 1.81, the “Ground pork visual color score” value ([4]; Day 4) was 2.67 and the “Ground pork visual color score” value ([4]; Day 5) was 4.38. It also gave a Ground pork discoloration ([5]; Day 3) of 2.41, a Ground pork discoloration ([5]; Day 4) of 2.84 and a Ground pork discoloration ([5]; Day 5) of 4.64. For the same compound, the “Ground pork oxidation (TBARS)” value ([6]; cooked, 0 hours) was 0.69^b mg malonaldehyde/kg sample, the “Ground pork oxidation (TBARS)” value ([6]; cooked, 24 hours) was 1.73^b mg malonaldehyde/kg sample and the “Ground pork oxidation (TBARS)” value ([6]; uncooked, Day 0) was 0.28 mg malonaldehyde/kg sample. The “Ground pork oxidation (TBARS)” value ([6]; uncooked, Day 4) was 0.34 mg malonaldehyde/kg sample, the “Ground pork oxidation (TBARS)” value ([6]; uncooked, Day 7) was 0.41 mg malonaldehyde/kg sample and the “Uncooked ribeye steak discoloration” value ([7]; Day 3) was 1.4. The “Uncooked ribeye steak discoloration” value ([7]; Day 5) was 1.1^b and the “Uncooked ribeye steak discoloration” value ([7]; Day 7) was 1.6.
